Assay results: ChEMBL document CHEMBL1130441, “Studies on -lactam antibiotics. Synthesis and antibacterial activity of novel 1-methylcarbapenems related to FR21818: 5-membered ring analogs” (1997)
In brackets after ≈: the same amount, converted by molar mass.

Tests used:
[1] = biological target: Dipeptidase 1 (Homo sapiens) (UniProt P16444); experiment: In vitro rate of hydrolysis by human dehydropeptidase-1 compared to meropenem.
Escherichia coli = experiment: In vitro antibacterial activity of compound was measured on Escherichia coli NIHJ JC-2; format: functional
Pseudomonas aeruginosa [2] = experiment: In vitro antibacterial activity of compound was measured on Pseudomonas aeruginosa IAM 1095; format: functional
Mus musculus [3] = experiment: Protective activity of compound against lethal systemic infection by Staphylococcus aureus 8008 (MRSA) in ICR mice at 1 hr after subcutaneous administration; format: functional; details: sc
Staphylococcus aureus [4] = experiment: In vitro antibacterial activity of compound was measured on Staphylococcus aureus 209P JC-1; format: functional
Staphylococcus aureus [5] = experiment: In vitro antibacterial activity of compound was measured on Staphylococcus aureus 3004(MRSA); format: functional
Proteus vulgaris = experiment: In vitro antibacterial activity of compound was measured on Proteus vulgaris IAM 1025; format: functional
Pseudomonas aeruginosa [6] = experiment: In vitro antibacterial activity of compound was measured on Pseudomonas aeruginosa 26; format: functional
Mus musculus [7] = experiment: Protective activity of compound was measured against lethal systemic infection by Staphylococcus aureus 8008 (MRSA) in ICR mice at 1 hr after subcutaneous administration; format: functional; details: sc
Mus musculus [8] = experiment: Protective activity of compound against lethal systemic infection by Staphylococcus aureus 8008 (MRSA) in ICR mice at 1 hr after sc administration; format: functional

Sequence of Dipeptidase 1 (Homo sapiens) (P16444 whole entry, looked up): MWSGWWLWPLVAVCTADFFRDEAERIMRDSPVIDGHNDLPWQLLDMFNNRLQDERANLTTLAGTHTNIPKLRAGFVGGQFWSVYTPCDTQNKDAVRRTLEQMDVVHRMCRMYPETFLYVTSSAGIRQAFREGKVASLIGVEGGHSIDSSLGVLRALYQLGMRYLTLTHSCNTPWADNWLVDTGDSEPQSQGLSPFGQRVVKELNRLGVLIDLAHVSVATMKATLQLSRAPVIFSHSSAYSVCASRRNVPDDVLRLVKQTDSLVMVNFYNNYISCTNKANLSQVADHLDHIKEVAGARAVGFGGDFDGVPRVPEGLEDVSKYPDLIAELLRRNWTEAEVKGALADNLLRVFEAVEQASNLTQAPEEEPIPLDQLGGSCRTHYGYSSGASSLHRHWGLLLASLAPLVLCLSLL

SMILES	DHP-I stability [1]	MIC (Escherichia coli)	MIC (Pseudomonas aeruginosa [2])	ED50 (Mus musculus [3])	MIC (Staphylococcus aureus [4])	MIC (Staphylococcus aureus [5])	MIC (Proteus vulgaris)	MIC (Pseudomonas aeruginosa [6])	ED50 (Mus musculus [7])	ED50 (Mus musculus [8])
C[C@@H](O)[C@H]1C(=O)N2C(C(=O)O)=C(S[C@@H]3CN[C@H](Cc4cc[n+](CC(=O)O)n4C)C3)[C@H](C)[C@H]12.[Cl-]	0.61	0.05 µg/mL	3.13 µg/mL	–	–	–	–	–	–	–
C[C@@H](O)[C@H]1C(=O)N2C(C(=O)O)=C(SCCNC=N)C[C@H]12 [IMIPENEM ANHYDROUS]	–	–	–	7.02 mg/kg	–	–	–	–	–	–
C[C@@H](O)[C@H]1C(=O)N2C(C(=O)O)=C(S[C@@H]3CN[C@H](Cc4c[n+](CC(N)=O)cn4C)C3)[C@H](C)[C@H]12.[Cl-]	0.31	0.1 µg/mL	3.13 µg/mL	–	0.05 µg/mL	12.5 µg/mL	0.78 µg/mL	0.2 µg/mL	–	–
C[C@@H](O)[C@H]1C(=O)N2C(C(=O)O)=C(S[C@@H]3CN[C@H](Cc4c[n+](C)c(CO)n4C)C3)[C@H](C)[C@H]12.[Cl-]	0.27	0.2 µg/mL	1.56 µg/mL	–	0.05 µg/mL	6.25 µg/mL	0.78 µg/mL	0.2 µg/mL	–	–
C[C@@H](O)[C@H]1C(=O)N2C(C(=O)O)=C(S[C@@H]3CN[C@H](Cc4cc(CO)[n+](C)n4C)C3)[C@H](C)[C@H]12.[Cl-]	–	0.1 µg/mL	6.25 µg/mL	–	–	–	–	–	–	–
C[C@@H](O)[C@H]1C(=O)N2C(C(=O)O)=C(S[C@@H]3CN[C@H](Cc4cn(C)[n+](CCO)c4)C3)[C@H](C)[C@H]12.[Cl-]	0.2	0.39 µg/mL	1.56 µg/mL	–	0.05 µg/mL	12.5 µg/mL	1.56 µg/mL	0.39 µg/mL	–	–
C[C@@H](O)[C@H]1C(=O)N2C(C(=O)O)=C(S[C@@H]3CN[C@H](Cc4n(C)cc[n+]4C)C3)[C@H](C)[C@H]12.[Cl-]	0.3	0.1 µg/mL	12.5 µg/mL	–	0.1 µg/mL	6.25 µg/mL	0.78 µg/mL	0.39 µg/mL	–	–
C[C@@H](O)[C@H]1C(=O)N2C(C(=O)O)=C(S[C@@H]3CN[C@H](Cc4cn(C)[n+](CC(=O)O)c4)C3)[C@H](C)[C@H]12.[Cl-]	0.14	0.1 µg/mL	6.25 µg/mL	–	0.1 µg/mL	12.5 µg/mL	0.78 µg/mL	0.39 µg/mL	–	–
CN[C@H](CC(C)C)C(=O)N[C@H]1C(=O)N[C@@H](CC(N)=O)C(=O)N[C@H]2C(=O)N[C@H]3C(=O)N[C@H](C(=O)N[C@H](C(=O)O)c4cc(O)cc(O)c4-c4cc3ccc4O)[C@H](O)c3ccc(c(Cl)c3)Oc3cc2cc(c3O[C@@H]2O[C@H](CO)[C@@H](O)[C@H](O)[C@H]2O[C@H]2C[C@](C)(N)[C@H](O)[C@H](C)O2)Oc2ccc(cc2Cl)[C@H]1O [VANCOMYCIN]	–	–	–	–	–	–	–	–	2.73 mg/kg	–
C[C@@H](O)[C@H]1C(=O)N2C(C(=O)O)=C(S[C@@H]3CN[C@H](Cc4n(C)nc[n+]4C)C3)[C@H](C)[C@H]12.[Cl-]	0.22	0.2 µg/mL	12.5 µg/mL	–	0.1 µg/mL	12.5 µg/mL	0.78 µg/mL	1.56 µg/mL	–	–
C[C@@H](O)[C@H]1C(=O)N2C(C(=O)O)=C(S[C@@H]3CN[C@H](C(=O)N(C)C)C3)[C@H](C)[C@H]12 [MEROPENEM]	1	0.025 µg/mL (≈ 0.0652 µM)	1.56 µg/mL (≈ 4.07 µM)	–	0.1 µg/mL (≈ 0.261 µM)	25 µg/mL (≈ 65.2 µM)	0.1 µg/mL (≈ 0.261 µM)	0.2 µg/mL (≈ 0.522 µM)	–	7.88 mg/kg
C[C@@H](O)[C@H]1C(=O)N2C(C(=O)O)=C(S[C@@H]3CN[C@H](Cc4c[n+](C)nn4C)C3)[C@H](C)[C@H]12.[Cl-]	0.32	0.1 µg/mL	3.13 µg/mL	–	0.05 µg/mL	25 µg/mL	0.78 µg/mL	0.39 µg/mL	–	–
C[C@@H](O)[C@H]1C(=O)N2C(C(=O)O)=C(S[C@@H]3CN[C@H](Cc4c[n+](CCO)nn4C)C3)[C@H](C)[C@H]12.[Cl-]	0.17	0.1 µg/mL	3.13 µg/mL	–	0.1 µg/mL	25 µg/mL	0.78 µg/mL	0.39 µg/mL	–	–
C[C@@H](O)[C@H]1C(=O)N2C(C(=O)O)=C(S[C@@H]3CN[C@H](Cc4c[n+](C)cn4C)C3)[C@H](C)[C@H]12.[Cl-]	0.41	0.2 µg/mL	3.13 µg/mL	–	0.05 µg/mL	6.25 µg/mL	0.78 µg/mL	0.2 µg/mL	–	–
C[C@@H](O)[C@H]1C(=O)N2C(C(=O)O)=C(S[C@@H]3CN[C@H](Cc4cn(C)[n+](C)c4CO)C3)[C@H](C)[C@H]12.[Cl-]	0.24	0.39 µg/mL	6.25 µg/mL	–	0.05 µg/mL	6.25 µg/mL	1.56 µg/mL	0.39 µg/mL	–	–
C[C@@H](O)[C@H]1C(=O)N2C(C(=O)O)=C(S[C@@H]3CN[C@H](Cc4cc[n+](C)n4C)C3)[C@H](C)[C@H]12.[Cl-]	0.42	0.2 µg/mL	1.56 µg/mL	–	0.05 µg/mL	6.25 µg/mL	0.78 µg/mL	0.2 µg/mL	–	–
C[C@@H](O)[C@H]1C(=O)N2C(C(=O)O)=C(S[C@@H]3CN[C@H](Cc4c(CO)c[n+](C)n4C)C3)[C@H](C)[C@H]12.[Cl-]	0.28	0.2 µg/mL	3.13 µg/mL	–	0.1 µg/mL	25 µg/mL	0.78 µg/mL	0.39 µg/mL	–	–
C[C@@H](O)[C@H]1C(=O)N2C(C(=O)O)=C(S[C@@H]3CN[C@H](Cc4cc[n+](CCO)n4C)C3)[C@H](C)[C@H]12.[Cl-]	0.26	0.2 µg/mL	6.25 µg/mL	–	0.05 µg/mL	6.25 µg/mL	1.56 µg/mL	0.2 µg/mL	5.45 mg/kg	–
C[C@@H](O)[C@H]1C(=O)N2C(C(=O)O)=C(S[C@@H]3CN[C@H](Cc4cc[n+](CC(N)=O)n4C)C3)[C@H](C)[C@H]12.[Cl-]	0.35	0.1 µg/mL	3.13 µg/mL	–	< 0.025 µg/mL	6.25 µg/mL	0.39 µg/mL	0.1 µg/mL	–	–
CC1(C)C[C@@H]1C(=O)N/C(=C\CCCCSC[C@H](N)C(=O)O)C(=O)O [CILASTATIN]	–	–	–	–	–	–	–	–	–	7.88 mg/kg
C[C@@H](O)[C@H]1C(=O)N2C(C(=O)[O-])=C(SC3Cn4cnc[n+]4C3)[C@H](C)[C@H]12 (stereo not given in full) [BIAPENEM]	0.15	0.39 µg/mL (≈ 1.11 µM)	1.56 µg/mL (≈ 4.45 µM)	–	0.05 µg/mL (≈ 0.143 µM)	25 µg/mL (≈ 71.3 µM)	3.13 µg/mL (≈ 8.93 µM)	0.2 µg/mL (≈ 0.571 µM)	–	35.2 mg/kg
C[C@@H](O)[C@H]1C(=O)N2C(C(=O)O)=C(S[C@@H]3CN[C@H](Cc4cn(C)[n+](CC(N)=O)c4)C3)[C@H](C)[C@H]12.[Cl-]	0.29	0.2 µg/mL	3.13 µg/mL	–	< 0.025 µg/mL	6.25 µg/mL	0.78 µg/mL	0.2 µg/mL	–	–
C[C@@H](O)[C@H]1C(=O)N2C(C(=O)O)=C(S[C@@H]3CN[C@H](Cc4cn5[n+](c4)CCC5)C3)[C@H](C)[C@H]12.[Cl-]	0.21	0.1 µg/mL	3.13 µg/mL	–	–	–	–	–	–	–
C[C@@H](O)[C@H]1C(=O)N2C(C(=O)O)=C(S[C@@H]3CN[C@H](Cc4c[n+](CCO)cn4C)C3)[C@H](C)[C@H]12.[Cl-]	0.25	0.1 µg/mL	3.13 µg/mL	–	0.05 µg/mL	12.5 µg/mL	1.56 µg/mL	0.39 µg/mL	–	–
C[C@@H](O)[C@H]1C(=O)N2C(C(=O)O)=C(S[C@@H]3CN[C@H](Cc4cn(C)[n+](C)c4)C3)[C@H](C)[C@H]12.[Cl-]	0.28	0.2 µg/mL	3.13 µg/mL	–	0.05 µg/mL	3.13 µg/mL	1.56 µg/mL	0.39 µg/mL	–	–
C[C@@H](O)[C@H]1C(=O)N2C(C(=O)O)=C(S[C@@H]3CN[C@H](Cc4c[n+](C)c(C(N)=O)n4C)C3)[C@H](C)[C@H]12.[Cl-]	0.3	0.1 µg/mL	1.56 µg/mL	–	–	–	–	–	–	–
